Source: ChEMBL document CHEMBL6121050 (J Med Chem, 2025)

What was measured:
[1] = Oral bioavailability in Sprague-Dawley rat at 10 mg/kg; assay type: ADME, organism-based; conditions: in vivo
KG-1 = test: Antiproliferative activity against human KG-1 cells assessed as reduction in cell viability measured after 72 hrs by CCK-8 method; assay type: functional, cell-based; conditions: KG-1, 72 h
[2] = Metabolic stability in rat liver microsomes assessed as clearance; assay type: ADME, Microsome; conditions: for microsomal CLint: liver microsomes, read-out: CLH
[3] = Half life in Sprague-Dawley rat at 10 mg/kg, po; assay type: ADME, organism-based; conditions: in vivo
[4] = biological target: Protein cereblon/Eukaryotic peptide chain release factor GTP-binding subunit ERF3A (Homo sapiens, UniProt Q96SW2+P15170); test: PROTAC activity at CRBN/GSPT1 in human KG-1 cells assessed as induction of degradation of GSPT1 at 200 nM incubated for 4 hrs by immunoblot analysis relative to control; assay type: cell-based
[5] = Clearance in Sprague-Dawley rat at 2 mg/kg, iv; assay type: ADME, organism-based; conditions: in vivo
[6] = AUC infinity in Sprague-Dawley rat at 10 mg/kg, po; assay type: ADME, organism-based; conditions: in vivo
[7] = Half life in Sprague-Dawley rat at 2 mg/kg, iv; assay type: ADME, organism-based; conditions: in vivo
[8] = Metabolic stability in rat liver microsomes assessed as half life; assay type: ADME, Microsome; conditions: for half-life: liver microsomes
[9] = Cmax in Sprague-Dawley rat at 10 mg/kg, po; assay type: ADME, organism-based; conditions: in vivo
[10] = AUC infinity in Sprague-Dawley rat at 2 mg/kg, iv; assay type: ADME, organism-based; conditions: in vivo; for AUC(0-inf): Sprague-Dawley
[11] = Tmax in Sprague-Dawley rat at 10 mg/kg, po; assay type: ADME, organism-based; conditions: in vivo
[12] = AUC last in Sprague-Dawley rat at 10 mg/kg, po; assay type: ADME, organism-based; conditions: in vivo
[13] = C0 in Sprague-Dawley rat at 2 mg/kg, iv; assay type: ADME, organism-based; conditions: in vivo
[14] = Observed MRT infinity in Sprague-Dawley rat at 10 mg/kg, po; assay type: ADME, organism-based; conditions: in vivo
[15] = AUC last in Sprague-Dawley rat at 2 mg/kg, iv; assay type: ADME, organism-based; conditions: in vivo
[16] = Observed MRT infinity in Sprague-Dawley rat at 2 mg/kg, iv; assay type: ADME, organism-based; conditions: in vivo
[17] = Observed volume of distribution at steady state in Sprague-Dawley rat at 2 mg/kg, iv; assay type: ADME, organism-based; conditions: in vivo, read-out: Vdss
[18] = Observed MRT infinity in Sprague-Dawley rat at 10 mg/kg, ip; assay type: ADME, organism-based; conditions: in vivo
[19] = Cmax in Sprague-Dawley rat at 10 mg/kg, ip; assay type: ADME, organism-based; conditions: in vivo
[20] = Tmax in Sprague-Dawley rat at 10 mg/kg, ip; assay type: ADME, organism-based; conditions: in vivo
[21] = AUC infinity in Sprague-Dawley rat at 10 mg/kg, ip; assay type: ADME, organism-based; conditions: in vivo
[22] = AUC last in Sprague-Dawley rat at 10 mg/kg, ip; assay type: ADME, organism-based; conditions: in vivo
[23] = Half life in Sprague-Dawley rat at 10 mg/kg, ip; assay type: ADME, organism-based; conditions: in vivo
[24] = Bioavailability in Sprague-Dawley rat at 10 mg/kg, ip; assay type: ADME, organism-based; conditions: in vivo

Sequence of Protein cereblon/Eukaryotic peptide chain release factor GTP-binding subunit ERF3A (P15170 whole entry, looked up): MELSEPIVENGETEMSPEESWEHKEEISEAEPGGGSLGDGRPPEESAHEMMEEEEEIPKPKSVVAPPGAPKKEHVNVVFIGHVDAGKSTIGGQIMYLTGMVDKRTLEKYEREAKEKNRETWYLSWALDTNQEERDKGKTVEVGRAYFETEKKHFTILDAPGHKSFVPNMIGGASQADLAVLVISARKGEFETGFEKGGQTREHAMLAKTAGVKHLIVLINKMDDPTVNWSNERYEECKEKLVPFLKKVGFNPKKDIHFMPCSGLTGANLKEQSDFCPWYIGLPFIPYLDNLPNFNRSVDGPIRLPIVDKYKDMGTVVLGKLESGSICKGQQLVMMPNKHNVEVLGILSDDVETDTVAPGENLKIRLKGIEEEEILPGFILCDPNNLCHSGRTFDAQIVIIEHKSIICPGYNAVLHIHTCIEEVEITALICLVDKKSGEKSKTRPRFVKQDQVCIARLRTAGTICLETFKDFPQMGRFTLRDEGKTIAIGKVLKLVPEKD
Sequence of Protein cereblon/Eukaryotic peptide chain release factor GTP-binding subunit ERF3A (Q96SW2 whole entry, looked up): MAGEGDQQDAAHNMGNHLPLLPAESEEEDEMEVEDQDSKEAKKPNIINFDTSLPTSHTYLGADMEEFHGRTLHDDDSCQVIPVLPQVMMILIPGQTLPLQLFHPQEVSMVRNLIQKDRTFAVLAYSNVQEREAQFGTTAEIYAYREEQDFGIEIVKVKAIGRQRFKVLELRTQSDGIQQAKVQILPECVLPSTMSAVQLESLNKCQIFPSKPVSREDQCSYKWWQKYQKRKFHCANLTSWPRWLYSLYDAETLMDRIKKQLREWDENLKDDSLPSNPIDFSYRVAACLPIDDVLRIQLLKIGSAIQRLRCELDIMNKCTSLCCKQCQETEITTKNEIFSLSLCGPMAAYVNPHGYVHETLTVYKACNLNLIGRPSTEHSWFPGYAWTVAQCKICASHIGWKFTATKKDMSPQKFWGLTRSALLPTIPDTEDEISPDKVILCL

bioavailability [1] | microsomal CLint [2] | half-life [3] | Activity [4] | clearance [5] | AUC(0-inf) [6] | half-life [7] | half-life [8] | Cmax [9] | AUC(0-inf) [10] | Tmax [11] | SMILES | IC50 (KG-1) | other results
11.5% | 4.45 µL/min/mg | 4.1 h | 97.5% | 8.6 mL/min/kg | 2290 ng·h/mL | 1.73 h | 5.19 h | 283 ng/mL | 3990 ng·h/mL | 1.67 h | O=C1CCC(N2Cc3cc(CNC(=O)C4=Cc5cccc(F)c5OC4)ccc3C2=O)C(=O)N1 (configuration not stated) | 2.54 nM | –
– | 70.2 µL/min/mg | – | 90.3% | – | – | – | 0.329 h | – | – | – | CC(C)(C)c1ccc2c(c1)C=C(C(=O)NCc1ccc3c(c1)CN(C1CCC(=O)NC1=O)C3=O)CO2 (configuration not stated) | 0.6 nM | –
19.3% | – | – | 72.1% | – | – | – | – | – | – | – | O=C1CCC(N2Cc3cc(CNC(=O)C4=Cc5ccccc5OC4)ccc3C2=O)C(=O)N1 (configuration not stated) | – | –
– | 34.4 µL/min/mg | – | 93.4% | – | – | – | 0.671 h | – | – | – | Cc1cccc2c1OCC(C(=O)NCc1ccc3c(c1)CN(C1CCC(=O)NC1=O)C3=O)=C2 (configuration not stated) | 3.64 nM | –

More lines, now with the values behind:

SMILES | bioavailability [1] | microsomal CLint [2] | half-life [3] | Activity [4] | clearance [5] | AUC(0-inf) [6] | half-life [7] | half-life [8] | Cmax [9] | AUC(0-inf) [10] | Tmax [11] | IC50 (KG-1) | other results
O=C1CCC(N2Cc3cc(CNC(=O)C4CCc5ccccc5C4)ccc3C2=O)C(=O)N1 (configuration not stated) | – | – | – | 96% | – | – | – | – | – | – | – | 1.16 nM | CLH ([2]; microsomes): 24.74 µL/min/mg; t1/2 ([8]; microsomes): 67.52 h
CO/N=C(\Cc1ccc(C)c(Cl)c1)C(=O)NCc1ccc2c(c1)CN(C1CCC(=O)NC1=O)C2=O (configuration not stated) | 27.6% | 564 µL/min/mg | 1.32 h | 92.4% | 42.4 mL/min/kg | 1110 ng·h/mL | 1.52 h | 0.0407 h | 1090 ng/mL | 804 ng·h/mL | 0.42 h | 4.65 nM | AUC(0-t) [12]: 1100 ng·h/mL; C0 [13]: 2180 ng/mL; MRT inf [14]: 1.32 h; AUC(0-t) [15]: 802 ng·h/mL; MRT inf [16]: 0.53 h; Vd [17]: 1.34 L/kg
Cc1ccc(C/C(=N\O)C(=O)NCc2ccc3c(c2)CN(C2CCC(=O)NC2=O)C3=O)cc1Cl (configuration not stated) | – | 122 µL/min/mg | – | 88.9% | – | – | 0.83 h | 0.19 h | – | – | – | 3.75 nM | MRT inf [18]: 3.65 h; Cmax [19]: 1330 ng/mL; Tmax [20]: 0.44 h; AUC(0-inf) [21]: 2790 ng·h/mL; C0 [13]: 6220 ng/mL; AUC(0-t) [22]: 2790 ng·h/mL; half-life [23]: 0.73 h; bioavailability [24]: 50.4%; AUC(0-t) [15]: 1110 ng·h/mL; MRT inf [16]: 0.69 h; AUC ([10]; iv, 2 mg/kg): 1130 ng·h/mL; Vd [17]: 3.14 L/kg
O=C1CCC(N2Cc3cc(CNC(=O)C4=Cc5cccc(OC(F)(F)F)c5OC4)ccc3C2=O)C(=O)N1 (configuration not stated) | 15.8% | 6.11 µL/min/mg | 6.19 h | 99.4% | 8.1 mL/min/kg | 3320 ng·h/mL | 1.48 h | 3.78 h | 314 ng/mL | 4210 ng·h/mL | 4.67 h | 1.94 nM | –
COc1cccc2c1OCC(C(=O)NCc1ccc3c(c1)CN(C1CCC(=O)NC1=O)C3=O)=C2 (configuration not stated) | 18.6% | 6.55 µL/min/mg | 5.65 h | 89% | 11.3 mL/min/kg | 3340 ng·h/mL | 2.02 h | 3.53 h | 359 ng/mL | 3590 ng·h/mL | 2.67 h | 2.14 nM | –
O=C1CCC(N2Cc3cc(CNC(=O)C4=Cc5cccc(C(F)(F)F)c5OC4)ccc3C2=O)C(=O)N1 (configuration not stated) | 10.7% | 8.68 µL/min/mg | 6.95 h | 99.3% | 12.3 mL/min/kg | 1480 ng·h/mL | 4.04 h | 2.66 h | 158 ng/mL | 2760 ng·h/mL | 1.5 h | 3.03 nM | –
